In patent US4900727A, “4H-1-benzopyran-4-one compounds which have anti-inflamatory or immunodulating action” (Hoechst Aktiengesellschaft, priority 1986, dated 1990):
Where a name gives a salt, the structure may show the parent alone. Read-outs that look alike come from different tables or passages of the source.

Experiments:
[1] = tested on: carrageenin-induced paw edema in rats; assay: Systemic anti-inflammatory action on carrageenin-induced paw edema in rats; assay type: in vivo, male Charles Foster rats; conditions: decrease in paw volume, 3 and 6 hours after carrageenin, from dose/response curve
Protocol: Male Charles Foster rats (120-150 g) were fasted for 18 hours, with water ad libitum. The test compound dissolved in distilled water was administered orally. The control group received distilled water. 0/05 ml of 0.5% carrageenin suspension was injected subcutaneously into the plantar region of the left hind paw. Using a Maclab differential volume meter, the paw volume was determined before the carrageenin injection and 3 and 6 hours after the injection. The percentage decrease in paw volume was calculated by the following equation: [formula] The ED50 value was calculated from the dose/response curve. Six animals were used for each group. The results with representative compounds according to the invention and their salts are listed in Table 4, the substituents relating to the following formula Ia: [drawing 11]

[2] = tested on: reverse passive Arthus reaction (RPA) in rats; assay: Reverse passive Arthus reaction (RPA) in rats; assay type: in vivo, Charles Foster rats of both sexes; conditions: one hour before RPA, edema vs untreated control; for % inhibition: hydrochloride
Protocol: Charles Foster rats of both sexes, weighing 150-180 g, were sorted into groups of six animals each. 24 hours before the initiation of the RPA, the rats were shaved from the mid-dorsal region and fasted overnight. The test compounds were administered orally one hour before inducing the Arthus reaction. The RPA reaction was induced by intradermal injection of 0.1 ml of appropriately diluted rabbit anti-BSA serum. Immediately after the intradermal exposure, each rat received 0.5 ml of 0.4% bovine serum albumin intraveneously. Four hours after the intradermal challenge, each group of animals was killed by cervical dislocation. The full thickness of the skin was removed from the back of each animal, and a 12 mm diameter disk was punched out with a metal punch from the site of the antiserum injection. The wet weight of each skin site was determined as soon as possible. The edema caused by the RPA was measured as the difference (expressed in mg) between the wet weight of the site injected with antibody and that injected with normal rabbit serum. The results are expressed as the percentage inhibition or potentiation of the edema by the compound as compared with the edema induced in the untreated control animals.

## Cc1cc(=O)c2c(O)cc(O)c([C@H]3CCN(C)C[C@H]3O)c2o1 (single isomer, unassigned) [(-) CH3 H CH3 HCl, (-)-cis-5,7-Dihydroxy-2-methyl-8-[4'-(3'-hydroxy-1'-methyl)-piperidinyl]-4H-1-benzopyran-4-one hydrochloride]
[1]; p.o., hydrochloride
  ED50: 9.0 mg/kg
[2]; dose 1.25 mg/kg p.o., 1.25 mg/kg
  % inhibition: 40.31%
[2]; dose 2.5 mg/kg p.o., 2.5 mg/kg
  % inhibition: 39.11%
[2]; dose 5.0 mg/kg p.o., 5 mg/kg
  % inhibition: 40.13%
[2]; dose 10.0 mg/kg p.o., 10 mg/kg
  % inhibition: 45.17%
[2]; dose 20.0 mg/kg p.o., 20 mg/kg
  % inhibition: 64.73%

## Cc1cc(=O)c2c(O)cc(O)c(C3CCN(CC4CC4)CC3O)c2o1 (single isomer, unassigned; (-)) [(-) CH3 H [drawing 12] HCl.H2 O, cis-(-)-5,7-Dihydroxy-2-methyl-8-[4'-(1'-cyclopropylmethyl-3'-hydroxy)-piperidinyl]-4H-1-benzopyran-4-one hydrochloride]
[1]; Rattus norvegicus, po, read-out: ED50
  ED50: 10 mg/kg
[2]; Rattus norvegicus, po, 4 h, dose 2.5 mg/kg p.o.
  inhibition in vivo at 2.5 mg/kg: 23%
[2]; Rattus norvegicus, po, 4 h, dose 5.0 mg/kg p.o.
  inhibition in vivo at 5 mg/kg: 49.7%
[2]; Rattus norvegicus, po, 4 h, dose 20.0 mg/kg p.o.
  inhibition in vivo at 20 mg/kg: 74%
